Measured values from patent US4397842A, “Peptides having thymopoietin-like activity” (Ortho Pharmaceutical Corporation, priority 1981, dated 1983).
Non-standard residues stand in square brackets, D forms with d. Residues, ends and D or L forms follow the SMILES beside them. Sar = CNCC(=O)O

What was measured:
CR^- B cell precursors = assay: induction in vitro of CR+ B cell differentiation from CR- B cell precursors; format: cell-based, nu/nu mice; conditions: same concentrations as for T cell induction
Description: (§1) To determine the activity and characteristics of the polypeptide of Example I, determinations were carried out on healthy 5-6 week nu/nu mice of both sexes, the mice being bred on a BALB/c background (thymocytes expressing Thy-1.2 surface antigen) and maintained under conventional conditions. For the antisera, anti Thy-1.2 sera were prepared in Thy-1 congenic mice.
(§2) For the induction in vitro of Thy-1^+ T cells or CR^+ B cell differentiation, the induction of thymocyte differentiation from prothymocytes in vitro was performed as described by Komuro and Boyse, (Lancet, 1, 740, 1973), using the acquisition of Thy-1.2 as a marker of T cell differentation. The induction of CR^+ B cell differentiation from CR^- B cell precursors in vitro was performed under similar conditions using as the assay criterion, the capacity of CR^+ B cells to bind sheep erythrocytes coated with subagglutinating quantities of rabbit antibody and nonlytic complement. Spleen cell populations from healthy nu/nu mice fractionated on discontinuous bovine serum albumin gradients were used as the source of both precursor types (Thy-1^- and CR^-) because they have few or no Thy-1^+ cells and low numbers of CR^+ cells.

prothymocytes = assay: induction in vitro of Thy-1+ T cell differentiation (Komuro and Boyse), acquisition of Thy-1.2 as marker; format: cell-based, nu/nu mice; conditions: for biological activity compared with the pentapeptide prepared in Example I: qualitative statement
Description: as §1, §2

| SMILES | induction of differentiation of CR+ B cells (CR^- B cell precursors) | biological activity compared with the pentapeptide prepared in Example I (prothymocytes) | concentration at which peptide is active (prothymocytes; assay of Example II) |
| --- | --- | --- | --- |
| CC(C)[C@H](NC(=O)[C@H](CC(=O)O)NC(=O)CN(C)C(=O)[C@@H](N)CCCNC(=N)N)C(=O)N[C@@H](Cc1ccc(O)cc1)C(=O)O [Example I, H--ARG--SAR--ASP--VAL--TYR--OH] (H-R[Sar]DVY-OH) | did not induce |  |  |
| CN(CC(=O)N[C@@H](Cc1ccc(O)cc1)C(=O)O)C(=O)[C@H](CC(=O)O)NC(=O)[C@H](CCCCN)NC(=O)[C@@H](N)CCCNC(=N)N [Example IVC, H--ARG--LYS--ASP--SAR--TYR--OH] (H-RKD[Sar]Y-OH) |  | same biological activity |  |
| CC(C)[C@H](NC(=O)[C@H](CC(=O)O)NC(=O)[C@@H](C)NC(=O)[C@@H](N)CCCNC(=N)N)C(=O)N[C@@H](Cc1ccc(O)cc1)C(=O)O [III, H--ARG--D--ALA--ASP--VAL--TYR--OH] (H-R[dA]DVY-OH) |  | same biological activity |  |
| CN(CC(=O)N[C@@H](Cc1ccc(O)cc1)C(=O)O)C(=O)[C@H](CC(=O)O)NC(=O)CN(C)C(=O)[C@@H](N)CCCNC(=N)N [IVA, H--ARG--SAR--ASP--SAR--TYR--OH] (H-R[Sar]D[Sar]Y-OH) |  | same biological activity |  |
| CN(CC(=O)N[C@@H](Cc1ccc(O)cc1)C(N)=O)C(=O)[C@H](CC(=O)O)NC(=O)CN(C)C(=O)[C@@H](N)CCCNC(=N)N [IVB, H--ARG--SAR--ASP--SAR--TYR--NH2] (H-R[Sar]D[Sar]Y-NH2) |  | same biological activity | 0.1 pg/mL |
